The results in this text go back to patent publication US20220267280A1, “SMALL MOLECULE STIMULATORS OF THE CORE PARTICLE OF THE PROTEASOME” (Purdue Research Foundation, priority 2019, published 2022).

pEC50: −log10 of the molar value. Entries after “also recorded” stand apart in the source; their conditions may differ.

Assay [1] has as its system 20S CP. Nature of the assay: standard FRET assay with the standard 20S CP. To be noted: for % activity increase (increase in 20S proteasome activity): derivative at 25 μM, in triplicate. It is filed as biochemical. On the procedure:
(§1) Miconazole was discovered as a stimulator of the 20S CP during a screen of the NIH Clinical Collection (NCC), using our previously described FRET assay.^15,21 However, this screen utilized a modulated FRET peptide that substituted an aspartic acid for the phenylalanine. Hydrolysis of the FRET peptide produces a fluorescent signal that can be monitored over time to determine the activity level of the 20S CP. Screening the NCC was performed in 384-well plates on a Tecan plate reader, monitoring the emission wavelength of the FRET peptide over a 1 hr period. Each compound was screened at a final concentration of 25 μM in singlet. A linear regression was performed for the change in fluorescence over time, producing a slope. This value for each compound was then compared to that of a DMSO control (20S CP basal level activity), which was included in triplicate for each plate. Primary hit compounds were determined to be those with a slope 50% greater than that of the DMSO control.
All primary hits were then validated in triplicate, using this reporter and the standard FRET reporter. Following triplicate validation, the hits were purchased from other sources and tested once again for the effect of each on the 20S CP, using the standard FRET assay (FIG. 2A).
Following a mechanistic analysis of miconazole, a dose-response study was performed using the FRET assay and the standard 20S CP.
Each derivative of miconazole is tested at 25 μM in triplicate, using our standard FRET assay. Included in each plate is 25 μM miconazole in triplicate as a positive control. This is also performed to determine how well a derivative compares to the original compound. Derivatives that enhance 20S CP activity are then used for further study.

Assay [2] has as its system 20S CP. Kind of assay: GFP-α-synuclein fusion cell assay, Western blot for GFP. It counts as cell-based. The following applies: for alpha-synuclein degradation (quantitation of gel bands): 25 μM for 16 hrs, duplicate. From the text: In this study, HEK-293T cells are transiently transfected to express a GFP-α-synuclein construct. α-Synuclein is a known substrate of the 20S CP, whereas GFP is too large and well-folded to enter the gate of the 20S CP for degradation. Therefore, 20S CP-mediated hydrolysis of this construct degrades the α-synuclein portion, leaving behind free GFP. […] After this time period, the cells were lysed and analyzed by Western blot for GFP. Because 20S CP-mediated hydrolysis of this fusion protein can only degrade the α-synuclein portion, the Western blot produces two clear bands, corresponding to the full fusion protein (GFP-α-synuclein) and free GFP. Quantitative analysis is performed for each sample, quantifying the relative densities of each band. The ratio of free GFP to the GFP-α-synuclein fusion was calculated. This calculated ratio of the miconazole-treated cell lysates was compared to the control (DMSO) to determine a change in 20S CP-mediated degradation.
We perform similar studies to those described above for each derivative that warrants further evaluation, including: a mechanistic analysis (FRET assay using the immunoproteasome and 26S proteasome), dose-response study to determine the EC50 of each compound, and the GFP-α-synuclein cell assay to examine the effectiveness of the miconazole derivative in cells. For the cell assay, miconazole is included as a positive control.
(In general: In western blotting, separated proteins are transferred to a membrane and probed.)

Assay [3] relates to 20S CP. Nature of the assay: screen of the NIH Clinical Collection, FRET assay with modulated FRET peptide. It is filed as biochemical. To be noted: 25 μM, singlet, 1 hr. On the procedure: as §1
Another assay has as its system 26S proteasome. Kind of assay: FRET assay using the 26S proteasome. It is filed as biochemical. To be noted: 25 μM. How it is done: (§2) In order to determine the general mechanism of action of miconazole (i.e. allosteric modulator of a hydrolysis activity or “gate-opener”), a series of FRET assays were performed with 25 μM miconazole, using the immunoproteasome (iCP) and the 26S proteasome. The immunoproteasome contains a high degree of similarity to the standard 20S CP (sCP); however, the catalytic β-subunits have been exchanged, leading to a variation in the hydrolysis activities of this protease compared to the standard 20S CP.^22 The gates of both the immunoproteasome and the 20S CP are identical. The 26S proteasome is the standard 20S CP that has been capped by the 19S regulatory particle, which binds the a-ring of the 20S CP and creates an open-gate conformation.^23 Gate-openers of the 20S CP should still impact the activity of the immunoproteasome; however, because the gate is precluded in the 26S proteasome, this type of stimulator is believed to be ineffective with this isoform of the proteasome Similarly, a stimulator that is able to enhance at least one of the catalytic sites of the 20S CP specifically may be ineffective with the immunoproteasome, as this isoform contains different catalytic subunits than the standard 20S CP. This type of stimulator will still impact the activity of the 26S proteasome, as it contains the standard 20S CP.

For the next assay, the system named is immunoproteasome (iCP). Kind of assay: FRET assay using the immunoproteasome. It is filed as biochemical. The following applies: 25 μM. How it is done:
as §2

As for `Fc1ccc(COC(Cn2cccc2)c2ccc(Cl)cc2Cl)c(F)c1` (stereo not shown) [MD2], the “% activity increase (increase in 20S proteasome activity)” value (from here on “% activity increase”) in the assay with 20S CP [1] is on record as 0%.

As for `Clc1ccc(C(Cn2ccnc2)OCc2c(Cl)cccc2Cl)c(Cl)c1` (stereo not shown) [MD6], the “% activity increase” value with 20S CP [1] is 171%.

`Clc1ccc(C(Cn2cccc2)OCc2ccccc2)c(Cl)c1` (stereo not shown) [MD3]: the “% activity increase” value in the assay on 20S CP [1] turned out to be 0%.

With `C#CC[n+]1ccn(CC(OCc2ccc(Cl)cc2Cl)c2ccc(Cl)cc2Cl)c1.[Br-]` (stereo not shown) [MD8], the “% activity increase” value in the assay on 20S CP [1] turned out to be 0%.

As for `Clc1ccc(COC(Cn2ccnc2)c2ccc(Cl)cc2Cl)cc1` (stereo not shown) [MD7], the “% activity increase” value with 20S CP [1] is 0%.

With `CC(C)(C)c1ccc(COC(Cn2ccnc2)c2ccc(Cl)cc2Cl)cc1` (stereo not shown) [MDX1], in the assay with 20S CP [1], the “% activity increase” value is reported as 248%. In the assay on 20S CP [2], the “alpha-synuclein degradation (quantitation of gel bands)” value is listed as “increase in alpha-synuclein degradation”.

Turning to `Clc1ccc(C(Cn2ccnc2)OCc2ccccc2Cl)c(Cl)c1` (stereo not shown) [MD5], the “% activity increase” value with 20S CP [1] worked out at 122%.

Consider `FC(F)(F)c1ccc(COC(Cn2ccnc2)c2ccc(Cl)cc2Cl)cc1` (stereo not shown) [MDX2], for which the “% activity increase” value with 20S CP [1] came out at 232%. The “alpha-synuclein degradation (quantitation of gel bands)” value in the assay with 20S CP [2] was “increase in alpha-synuclein degradation”.

`Clc1ccc(C(Cn2cccc2)OCc2ccc(Br)cc2Br)c(Cl)c1` (stereo not shown) [MD4]: in the assay with 20S CP [1], the “% activity increase” value was 0%.

Consider `CC(C)(C)c1ccc(C[n+]2ccn(CC(OCc3ccc(Cl)cc3Cl)c3ccc(Cl)cc3Cl)c2)cc1.[Br-]` (stereo not shown) [MDX3], for which the “% activity increase” value in the assay on 20S CP [1] is given as 0%.

For `Cc1ccc(COC(Cn2cccc2)c2ccc(Cl)cc2Cl)c(C)c1` (stereo not shown) [MD1], in the assay with 20S CP [1], the “% activity increase” value came to 0%.

Regarding `Clc1ccc(COC(Cn2ccnc2)c2ccc(Cl)cc2Cl)c(Cl)c1` (stereo not shown) [miconazole, reference compound], the “effect on standard 20S CP (sCP) activity” value in the assay on 20S CP [1] (25 μM) is given as “effective stimulator; also recorded: stimulatory effect”. For the same compound, on 20S CP [1] (read-out: EC50 (effective concentration that induces 50% of its maximum stimulatory effect), dose-response, standard 20S CP (sCP)), the pEC50 is 4.70. The “increase of 20S CP activity (slope vs DMSO control)” value with 20S CP [3] came to 299%. In the assay on 20S CP [2] (HEK-293T cells, 25 μM, 24 hr), the “enhancement of degradation of α-synuclein over the DMSO control (ratio of free GFP to GFP-α-synuclein)” value is given as 200-300%. In addition, in the assay on 26S proteasome, the “effect on 26S proteasome activity” value is “no effect”. The “effect on immunoproteasome (iCP) activity” value with immunoproteasome (iCP) was “effective stimulator; also recorded: stimulatory effect”.
